Consider 19 compounds from patent publication US8247403B2, “Benzoxazepine derivatives and use thereof” (Takeda Pharmaceutical Company Limited, priority 2007, dated 2012).

The structures appear in SMILES notation. Structures can show the parent of a compound that is named as a salt.

Assay [1] has as its target serotonin 5-HT2C receptor (Homo sapiens, UniProt P28335, I156V/I160V/N158S). Nature of the assay: cell-based. As to conditions: CHO, read-out: ratio to maximum response by 5-HT (1 μM).
Assay [2] deals with female spinal cord transected rat whose hypogastric nerve and pudendal nerves were bilaterally cut. Nature of the assay: Urethral closure response induced by increased bladder pressure in rat with hypogastric and pudendal nerves cut. The assay is classed as in vivo. As for the experimental part: SD female rats (body weight 230-274 g) were anesthetized with urethane (Wako Pure Chemical Industries, Ltd.), and the spinal cord was cut at T8-9 level to eliminate the micturition reflex. During the operation, halothane (Takeda Pharmaceutical Company Limited) anesthesia was added as necessary. The abdomen was opened, the bladder neck was ligated with a suture thread, and then, the hypogastric nerve and the pudendal nerves were bilaterally cut. A catheter (PE-90, Clay Adams) was inserted in the bladder, and the other end of the bladder catheter was connected to the pressure transducer and an aquatic reservoir (60 ml syringe) of saline via a three-way cock. A microchip transducer catheter (SPR-524, Millar Instruments Inc.) was inserted from the urethral orifice toward the bladder, and the transducer part was adjusted to be in the urethra at 10.0-15.0 mm from the urethral orifice using the scale on the catheter surface. The topical changes in the urethral pressure (hereinafter to be referred to as urethral pressure for convenience) measured by the microchip transducer were input into a computer via an amplifier (BP Amp; ADINSTRUMENTS) and a data analyzer (Powerlab 4/25; ADINSTRUMENTS; sampled at 1000 Hz), and recorded on a hard disk. […] The response of the urethra induced by the increased bladder pressure was repeatedly measured, and the average value of the last two measures was taken as the value before drug administration. The evaluation item was reflective urethral closure response, and the average urethral pressure for 30 seconds before increasing the bladder pressure and 30 seconds when the bladder pressure was raised to 50 cm was calculated. Then, the value before bladder pressure increase was subtracted from the value during bladder pressure increase and taken as the urethral closure response. […] The drug was dissolved in saline with dimethylformamide, and intravenously administered at 1 ml/kg.

serotonin 5-HT2C receptor, sequence (P28335 33-458 I156V/N158S/I160V limits assumed): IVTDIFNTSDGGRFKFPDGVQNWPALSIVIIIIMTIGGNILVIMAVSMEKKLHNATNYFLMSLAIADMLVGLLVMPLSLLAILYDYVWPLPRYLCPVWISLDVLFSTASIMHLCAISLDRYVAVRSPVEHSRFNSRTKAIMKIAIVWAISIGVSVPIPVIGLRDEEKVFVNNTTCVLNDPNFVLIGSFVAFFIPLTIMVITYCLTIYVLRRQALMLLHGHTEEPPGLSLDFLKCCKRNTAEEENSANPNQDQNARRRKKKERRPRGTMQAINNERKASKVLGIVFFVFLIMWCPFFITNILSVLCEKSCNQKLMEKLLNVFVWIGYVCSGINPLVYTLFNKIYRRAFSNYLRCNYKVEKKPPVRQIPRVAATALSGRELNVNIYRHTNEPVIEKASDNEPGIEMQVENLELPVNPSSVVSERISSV

As for `c1cc2c(c(C3CCOC3)c1)OCCNC2` (centres unmarked) [Example 55, 9-(tetrahydrofuran-3-yl)-2,3,4,5-tetrahydro-1,4-benzoxazepine hydrochloride], in assay [1], the activation at 1 µM worked out at 103%.

On to `CC(c1cccc2c1OCCNC2)C(F)(F)F` (centres unmarked) [Example 59, 9-(2,2,2-trifluoro-1-methylethyl)-2,3,4,5-tetrahydro-1,4-benzoxazepine hydrochloride], for which the activation at 1 µM in assay [1] is 95.2%.

On to `CCN(C)c1ccc2c(c1)OCCNC2` [Example 6, N-ethyl-N-methyl-2,3,4,5-tetrahydro-1,4-benzoxazepine-8-amine dihydrochloride], for which the activation at 1 µM in assay [1] worked out at 102%.

In the case of `Clc1ccccc1-c1cccc2c1OCCNC2` [Example 10, 9-(2-chlorophenyl)-2,3,4,5-tetrahydro-1,4-benzoxazepine hydrochloride], the activation at 1 µM in assay [1] was 94%.

Take `Cl.c1cc2c(c(C3CCC3)c1)OCCNC2` [Example 63, 9-cyclobutyl-2,3,4,5-tetrahydro-1,4-benzoxazepine hydrochloride]: in assay [2] (3 mg/kg i.v., 10 min after administration, n=6, bladder pressure raised to 50 cm H2O), the “Urethral closure response, after drug administration” value is listed as 6.2 ± 0.9 cm H2O. Also, the “Urethral closure response, increase” value in assay [2] (3 mg/kg i.v., difference between after and before drug administration, P < 0.001 vs vehicle) was determined as 4.4 ± 0.7 cm H2O. Also, the “Urethral closure response, before drug administration” value in assay [2] (baseline of the 3 mg/kg i.v. group, n=6, bladder pressure raised to 50 cm H2O) was found to be 1.8 ± 0.5 cm H2O. Moreover, in assay [2] (intravenous administration, bladder pressure 0 to 50 cm H2O), the “effect on urethral closure response induced by increased bladder pressure (in words)” value was “significantly increased the urethral closure response”. Also, the activation at 1 µM in assay [1] turned out to be 97.6%.

Turning to `c1cc2c(cc1N1CCOCC1)OCCNC2` [Example 1, 8-(morpholin-4-yl)-2,3,4,5-tetrahydro-1,4-benzoxazepine hydrochloride], in assay [1], the activation at 1 µM was 95.4%.

With `CC(C)N(C)c1ccc2c(c1)OCCNC2` [Example 4, N-isopropyl-N-methyl-2,3,4,5-tetrahydro-1,4-benzoxazepine-8-amine dihydrochloride], in assay [1], the activation at 1 µM was 100%.

For the compound `c1cc2c(cc1N1CCCCC1)OCCNC2` [Example 3, 8-(piperidin-1-yl)-2,3,4,5-tetrahydro-1,4-benzoxazepine dihydrochloride], the activation at 1 µM in assay [1] amounted to 94.3%.

As to `Cc1ccccc1-c1cccc2c1OCCNC2` [Example 11, 9-(2-methylphenyl)-2,3,4,5-tetrahydro-1,4-benzoxazepine hydrochloride], in assay [1], the activation at 1 µM was found to be 92.7%.

As to `c1cc2c(c(-c3ccsc3)c1)OCCNC2` [Example 16, 9-(3-thienyl)-2,3,4,5-tetrahydro-1,4-benzoxazepine hydrochloride], the activation at 1 µM in assay [1] came to 99.1%.

For `c1cc2c(c(-c3ccoc3)c1)OCCNC2` [Example 15, 9-(3-furyl)-2,3,4,5-tetrahydro-1,4-benzoxazepine hydrochloride], in assay [1], the activation at 1 µM is 96.2%.

On to `c1cc2c(c(C3CC3)c1)OCCNC2` [Example 64, 9-cyclopropyl-2,3,4,5-tetrahydro-1,4-benzoxazepine hydrochloride], for which the activation at 1 µM in assay [1] came out at 94.6%.

Turning to `c1ccc(-c2cccc3c2OCCNC3)cc1` [Example 9, 9-phenyl-2,3,4,5-tetrahydro-1,4-benzoxazepine hydrochloride], the activation at 1 µM in assay [1] is 93.1%.

In the case of `C1=C(c2cccc3c2OCCNC3)CCC1` [Example 26, 9-(cyclopenta-1-en-1-yl)-2,3,4,5-tetrahydro-1,4-benzoxazepine hydrochloride], the activation at 1 µM in assay [1] turned out to be 101%.

For `CCN(CC)c1ccc2c(c1)OCCNC2` [Example 5, N,N-diethyl-2,3,4,5-tetrahydro-1,4-benzoxazepine-8-amine dihydrochloride], in assay [1], the activation at 1 µM came out at 91.9%.

Turning to `c1cc2c(cc1N1CCCC1)OCCNC2` [Example 2, 8-(pyrrolidin-1-yl)-2,3,4,5-tetrahydro-1,4-benzoxazepine dihydrochloride], the activation at 1 µM in assay [1] is 93.1%.

On to `c1cc2c(c(N3CCCC3)c1)OCCNC2` [Example 7, 9-(pyrrolidin-1-yl)-2,3,4,5-tetrahydro-1,4-benzoxazepine dihydrochloride], for which the activation at 1 µM in assay [1] stood at 107%.

As for `FC(F)(F)c1ccccc1-c1cccc2c1OCCNC2` [Example 12, 9-[2-(trifluoromethyl)phenyl]-2,3,4,5-tetrahydro-1,4-benzoxazepine hydrochloride], in assay [1], the activation at 1 µM came out at 93.6%.

With `FC1(F)CCN(c2cccc3c2OCCNC3)C1` [Example 58, 9-(3,3-difluoropyrrolidin-1-yl)-2,3,4,5-tetrahydro-1,4-benzoxazepine], the activation at 1 µM in assay [1] was 95.5%.
